Experimental data from patent US20250026778A1 (TIUMBIO CO., LTD., priority 2021, published 2025).

These molecules were tested against T1, his-galectin-3 (Homo sapiens, UniProt P17931) (assay: TR-FRET assay (in vitro galectin-3 binding inhibitory activity test)). Details: Table 2; compound at 20 μM; 60 nM his-galectin-3, 15 nM biotin-ASF; read-out: % Inhibitory activity (at 20 μM).
T1 construct: purchased Abcam
How it was run: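 Compound is premixed with his-galectin-3 (60 nM final), then biotin-ASF (15 nM), Tb anti-His antibody (2 nM) and streptavidin-d2 (20 nM) are added. After at least 3.5 hours at RT in HEPES/NaCl buffer with Tween 20 and BSA, TR-FRET is read at 615/665 nm. DMSO serves as the uninhibited control, ASF omission as background.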

T1 sequence (P17931 whole entry): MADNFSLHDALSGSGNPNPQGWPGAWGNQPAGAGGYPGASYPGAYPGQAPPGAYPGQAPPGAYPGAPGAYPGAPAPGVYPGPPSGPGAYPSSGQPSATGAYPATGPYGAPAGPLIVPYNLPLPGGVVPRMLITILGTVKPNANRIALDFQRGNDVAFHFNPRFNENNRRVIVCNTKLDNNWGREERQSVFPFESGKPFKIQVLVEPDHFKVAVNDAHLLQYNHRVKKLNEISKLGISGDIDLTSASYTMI

Row | Structure (SMILES) | inhibition at 20 µM
1 | O=C(N[C@@H]1CCO[C@]12O[C@H](CO)[C@H](O)[C@H](n1cc(-c3cc(F)c(F)c(F)c3)nn1)[C@H]2O)c1cccc2c(Cl)cccc12 [Compound A169, 5-chloro-N-((4R,5S,7R,8R,9S,10R)-8,10-dihydroxy-7-(hydroxymethyl)-9-(4-(3,4,5-trifluorophenyl)-1H-1,2,3-triazol-1-yl)-1,6-dioxaspiro[4.5]decan-4-yl)-1-naphthamide] | > 75%
2 | O=C(N[C@@H]1CCO[C@]12O[C@H](CO)[C@H](O)[C@H](n1cc(-c3cc(F)c(F)c(F)c3)nn1)[C@H]2O)c1ccc(F)c2ccccc12 [Compound A170, N-((4R,5S,7R,8R,9S,10R)-8,10-dihydroxy-7-(hydroxymethyl)-9-(4-(3,4,5-trifluorophenyl)-1H-1,2,3-triazol-1-yl)-1,6-dioxaspiro[4.5]decan-4-yl)-4-difluoro-1-naphthamide] | > 75%
3 | O=C(N[C@@H]1CCO[C@]12O[C@H](CO)[C@H](O)[C@H](n1cc(-c3cc(F)c(F)c(F)c3)nn1)[C@H]2O)c1ccc(Cl)c2ccccc12 [Compound A172, 4-chloro-N-((4R,5S,7R,8R,9S,10R)-8,10-dihydroxy-7-(hydroxymethyl)-9-(4-(3,4,5-trifluorophenyl)-1H-1,2,3-triazol-1-yl)-1,6-dioxaspiro[4.5]decan-4-yl)-1-naphthamide] | > 75%
4 | O=C(N[C@@H]1CCO[C@]12O[C@H](CO)[C@H](O)[C@H](n1cc(-c3cc(F)c(F)c(F)c3)nn1)[C@H]2O)c1ccc2cc(Cl)ccc2c1 [Compound A173, 6-chloro-N-((4R,5S,7R,8R,9S,10R)-8,10-dihydroxy-7-(hydroxymethyl)-9-(4-(3,4,5-trifluorophenyl)-1H-1,2,3-triazol-1-yl)-1,6-dioxaspiro[4.5]decan-4-yl)-2-naphthamide] | 25 to 50%
5 | O=C(N[C@@H]1CCO[C@]12O[C@H](CO)[C@H](O)[C@H](n1cc(-c3cc(F)c(F)c(F)c3)nn1)[C@H]2O)c1ccc(Br)c2ccccc12 [Compound A176, 4-bromo-N-((4R,5S,7R,8R,9S,10R)-8,10-dihydroxy-7-(hydroxymethyl)-9-(4-(3,4,5-trifluorophenyl)-1H-1,2,3-triazol-1-yl)-1,6-dioxaspiro[4.5]decan-4-yl)-1-naphthamide] | > 75%
6 | O=C(N[C@@H]1CCO[C@]12O[C@H](CO)[C@H](O)[C@H](n1cc(-c3cc(F)c(F)c(F)c3)nn1)[C@H]2O)c1csc2ccc(Cl)cc12 [Compound A177, 5-chloro-N-((4R,5S,7R,8R,9S,10R)-8,10-dihydroxy-7-(hydroxymethyl)-9-(4-(3,4,5-trifluorophenyl)-1H-1,2,3-triazol-1-yl)-1,6-dioxaspiro[4.5]decan-4-yl)benzo[b]thiophene-3-carboxamide] | > 75%
7 | O=C(N[C@@H]1CCO[C@]12O[C@H](CO)[C@H](O)[C@H](n1cc(-c3cc(F)c(F)c(F)c3)nn1)[C@H]2O)c1cc(Br)cc2ccccc12 [Compound A178, 3-bromo-N-((4R,5S,7R,8R,9S,10R)-8,10-dihydroxy-7-(hydroxymethyl)-9-(4-(3,4,5-trifluorophenyl)-1H-1,2,3-triazol-1-yl)-1,6-dioxaspiro[4.5]decan-4-yl)-1-naphthamide] | > 75%
8 | O=C(N[C@@H]1CCO[C@]12O[C@H](CO)[C@H](O)[C@H](n1cc(-c3cc(F)c(F)c(F)c3)nn1)[C@H]2O)c1cccc(-c2ccccc2Br)c1 [Compound A179, 2′-bromo-N-((4R,5S,7R,8R,9S,10R)-8,10-dihydroxy-7-(hydroxymethyl)-9-(4-(3,4,5-trifluorophenyl)-1H-1,2,3-triazol-1-yl)-1,6-dioxaspiro[4.5]decan-4-yl)-[1,1′-biphenyl]-3-carboxamide] | 50 to 75%

Same assay, conditions: Table 3, found values; compound at 20 μM; 60 nM his-galectin-3, 15 nM biotin-ASF; read-out: % Inhibitory activity (at 20 μM)

Row | Structure (SMILES) | inhibition at 20 µM
9 | O=C(N[C@@H]1CCO[C@]12O[C@H](CO)[C@H](O)[C@H](n1cc(-c3cc(F)c(F)c(F)c3)nn1)[C@H]2O)c1ccc(F)c2ccccc12 [Compound A170, N-((4R,5S,7R,8R,9S,10R)-8,10-dihydroxy-7-(hydroxymethyl)-9-(4-(3,4,5-trifluorophenyl)-1H-1,2,3-triazol-1-yl)-1,6-dioxaspiro[4.5]decan-4-yl)-4-difluoro-1-naphthamide] | 85.3%

Same assay, conditions: read-out: % Inhibitory activity (at 20 μM), Table 2; compound at 20 μM; 60 nM his-galectin-3, 15 nM biotin-ASF

Row | Structure (SMILES) | inhibition at 20 µM
10 | O=C(N[C@@H]1CCO[C@]12O[C@H](CO)[C@H](O)[C@H](n1cc(-c3cc(F)c(F)c(F)c3)nn1)[C@H]2O)c1ccccc1Oc1ccccc1 [Compound A171, N-((4R,5S,7R,8R,9S,10R)-8,10-dihydroxy-7-(hydroxymethyl)-9-(4-(3,4,5-trifluorophenyl)-1H-1,2,3-triazol-1-yl)-1,6-dioxaspiro[4.5]decan-4-yl)-2-phenoxybenzamide] | 25 to 50%
